The values that follow come from patent publication US20170233413A1, “SUBSTITUTED ANNULATED PYRIMIDINES AND USE THEREOF” (Bayer Pharma Aktiengesellschaft, priority 2014, published 2017).

Structures are written as SMILES.

In assay [1] the target is T1, recombinant guanylate cyclase reporter cell line (Rattus norvegicus, UniProt P19686+P20595).
T1 construct: expressed in transfected cells
T1 sequence (P19686 1-690): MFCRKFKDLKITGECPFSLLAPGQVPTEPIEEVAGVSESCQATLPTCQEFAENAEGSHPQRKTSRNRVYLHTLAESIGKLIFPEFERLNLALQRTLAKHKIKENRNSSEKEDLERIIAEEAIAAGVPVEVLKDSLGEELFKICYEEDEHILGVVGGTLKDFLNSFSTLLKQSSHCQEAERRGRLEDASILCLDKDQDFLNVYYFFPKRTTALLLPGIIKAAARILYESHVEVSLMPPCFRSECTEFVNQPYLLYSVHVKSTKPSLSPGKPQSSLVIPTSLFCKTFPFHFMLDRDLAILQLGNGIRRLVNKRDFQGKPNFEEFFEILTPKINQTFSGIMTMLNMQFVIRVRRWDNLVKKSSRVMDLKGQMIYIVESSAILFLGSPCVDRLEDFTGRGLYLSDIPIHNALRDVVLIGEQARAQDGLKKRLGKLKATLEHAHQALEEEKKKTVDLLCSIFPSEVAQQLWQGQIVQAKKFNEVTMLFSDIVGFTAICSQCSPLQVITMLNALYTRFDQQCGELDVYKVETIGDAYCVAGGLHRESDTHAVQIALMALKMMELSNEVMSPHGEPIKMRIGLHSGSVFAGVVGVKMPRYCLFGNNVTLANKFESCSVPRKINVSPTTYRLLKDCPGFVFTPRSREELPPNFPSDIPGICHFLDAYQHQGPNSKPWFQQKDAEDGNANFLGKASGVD
T1 sequence (P20595 1-619): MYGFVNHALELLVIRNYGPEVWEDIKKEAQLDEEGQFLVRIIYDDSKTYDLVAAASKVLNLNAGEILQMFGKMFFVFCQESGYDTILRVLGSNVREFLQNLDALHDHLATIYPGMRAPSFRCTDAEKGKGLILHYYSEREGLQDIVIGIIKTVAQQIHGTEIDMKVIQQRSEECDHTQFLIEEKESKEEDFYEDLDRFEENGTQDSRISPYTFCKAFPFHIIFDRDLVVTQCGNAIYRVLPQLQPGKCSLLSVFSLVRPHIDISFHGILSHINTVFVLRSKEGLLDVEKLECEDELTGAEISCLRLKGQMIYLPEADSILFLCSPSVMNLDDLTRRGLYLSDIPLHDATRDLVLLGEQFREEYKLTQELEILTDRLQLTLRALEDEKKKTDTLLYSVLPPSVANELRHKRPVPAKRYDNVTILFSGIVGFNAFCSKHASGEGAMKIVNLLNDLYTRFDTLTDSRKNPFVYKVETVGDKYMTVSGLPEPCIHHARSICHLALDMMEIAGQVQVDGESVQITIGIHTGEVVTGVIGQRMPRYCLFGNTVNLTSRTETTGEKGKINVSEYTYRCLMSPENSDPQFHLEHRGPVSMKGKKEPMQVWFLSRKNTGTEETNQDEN
Description: Effect on a recombinant guanylate cyclase reporter cell line. The class given is cell-based. Conditions: MEC = minimum effective concentration; in some cases means of individual determinations. The method, boiled down: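 Values are reported as MEC, sometimes averaged over individual determinations. The test system is a reporter cell line expressing recombinant rat guanylate cyclase.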

The target of assay [2] is T2, human phosphodiesterase 5 (PDE 5) (Homo sapiens, UniProt O76074).
T2 construct: PDE 5 preparations are obtained from human platelets by disruption; from tissue; host or cells: human platelets
Description: Inhibition of human phosphodiesterase 5 (PDE 5). The assay is classed as biochemical. Conditions: PDE 5 preparation from human platelets; in some cases means of individual determinations. In outline:
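IC50 comes from percent inhibition over a 1:3 series with final levels of 4 to 0.0018 μM. Reaction: tritiated cGMP tracer (0.025 μCi) with platelet-derived, Mono Q-purified enzyme, 1 h at room temperature in Tris pH 7.5, under 70% turnover. Read-out by scintillation proximity beads.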

On to `CC1(C)C(=O)Nc2nc(-c3nn(Cc4ccccc4F)c4ncccc34)nc(C(=O)NCC3CCCO3)c21` (racemic) [Example 130, rac-2-[1-(2-fluorobenzyl)-1H-pyrazolo[3,4-b]pyridin-3-yl]-5,5-dimethyl-6-oxo-N-(tetrahydrofuran-2-ylmethyl)-6,7-dihydro-5H-pyrrolo[2,3-d]pyrimidine-4-carboxamide], for which the MEC in assay [1] is 0.3 µM. The compound further displayed an IC50 in assay [2] of 0.028 µM.

As for `CC(C)=CCNC(=O)c1nc(-c2nn(Cc3ccccc3F)c3ncccc23)nc2c1C(C)(C)C(=O)N2` [Example 85, 2-[1-(2-fluorobenzyl)-1H-pyrazolo[3,4-b]pyridin-3-yl]-5,5-dimethyl-N-(3-methylbut-2-en-1-yl)-6-oxo-6,7-dihydro-5H-pyrrolo[2,3-d]pyrimidine-4-carboxamide], the MEC in assay [1] is 0.1 µM. This compound yielded an IC50 in assay [2] of 0.038 µM.

Take `Cc1nc2c(cc1F)c(-c1nc3c(c(C(=O)N(C)CC4CC4)n1)C(C)(C)C(=O)N3)nn2Cc1cccc(F)c1F` [Example 38]: the MEC in assay [1] came to 0.01 µM. Half-maximal inhibition in assay [2] (IC50) required 0.77 µM.

For the compound `CC1(C(F)(F)F)C(=O)Nc2nc(-c3nn(Cc4ncccc4F)c4ncc(F)cc34)nc(C(N)=O)c21` (single isomer, unassigned; ent-2) [Example 22, ent-2-{5-Fluoro-1-[(3-fluoropyridin-2-yl)methyl]-1H-pyrazolo[3,4-b]pyridin-3-yl}-5-methyl-6-oxo-5-(trifluoromethyl)-6,7-dihydro-5H-pyrrolo[2,3-d]pyrimidine-4-carboxamide (enantiomer A)], in assay [1], the MEC worked out at 2 µM. Also, it took 0.17 µM to reach half-maximal inhibition in assay [2] (IC50).

With `CC1(C)C(=O)Nc2nc(-c3nn(Cc4ccccc4F)c4ncc(F)cc34)nc(C(=O)NCCC(F)(F)F)c21` [Example 51], the MEC in assay [1] amounted to 0.1 µM. For the same compound, 0.087 µM corresponded to half-maximal inhibition in assay [2] (IC50).

As for `CC1(C)C(=O)Nc2nc(-c3nn(Cc4ccccc4F)c4cc(Cl)ccc34)nc(C(=O)NCC(F)(F)F)c21` [Example 44], the MEC in assay [1] amounted to 0.3 µM. Moreover, the IC50 in assay [2] amounted to 0.11 µM.

Consider `CN(C)CCNC(=O)c1nc(-c2nn(Cc3ccccc3F)c3ncccc23)nc2c1C(C)(C)C(=O)N2` [Example 128, N-[2-(dimethylamino)ethyl]-2-[1-(2-fluorobenzyl)-1H-pyrazolo[3,4-b]pyridin-3-yl]-5,5-dimethyl-6-oxo-6,7-dihydro-5H-pyrrolo[2,3-d]pyrimidine-4-carboxamide], for which the MEC in assay [1] came out at 1 µM. In assay [2], this compound gave an IC50 of 0.33 µM.

Turning to `CC(CC1CC1)NC(=O)c1nc(-c2nn(Cc3ccccc3F)c3ncccc23)nc2c1C(C)(C)C(=O)N2` (racemic) [Example 68, rac-N-(1-cyclopropylpropan-2-yl)-2-[1-(2-fluorobenzyl)-1H-pyrazolo[3,4-b]pyridin-3-yl]-5,5-dimethyl-6-oxo-6,7-dihydro-5H-pyrrolo[2,3-d]pyrimidine-4-carboxamide], in assay [1], the MEC amounted to 0.1 µM. In assay [2], the IC50 was 0.013 µM.

As for `CC1(C)C(=O)Nc2nc(-c3nn(Cc4ccccc4F)c4ncccc34)nc(C(=O)NCC(N)CC(F)(F)F)c21` (racemic) [Example 136, rac-N-(2-amino-4,4,4-trifluorobutyl)-2-[1-(2-fluorobenzyl)-1H-pyrazolo[3,4-b]pyridin-3-yl]-5,5-dimethyl-6-oxo-6,7-dihydro-5H-pyrrolo[2,3-d]pyrimidine-4-carboxamide], the MEC in assay [1] was found to be 1 µM. In assay [2], this compound gave an IC50 of 0.042 µM.

Turning to `C[C@H](NC(=O)c1nc(-c2nn(Cc3ccccc3F)c3ncccc23)nc2c1C(C)(C)C(=O)N2)C(N)=O` [Example 80, N-[(2S)-1-amino-1-oxopropan-2-yl]-2-[1-(2-fluorobenzyl)-1H-pyrazolo[3,4-b]pyridin-3-yl]-5,5-dimethyl-6-oxo-6,7-dihydro-5H-pyrrolo[2,3-d]pyrimidine-4-carboxamide], the MEC in assay [1] came out at 1 µM. The same compound displayed an IC50 in assay [2] of 0.023 µM.

Take `Cc1nc2c(cc1F)c(-c1nc3c(c(C(=O)N(C)CCO)n1)C(C)(C)C(=O)N3)nn2Cc1cccc(F)c1F` [Example 40]: the MEC in assay [1] turned out to be 0.03 µM. In assay [2], this compound displayed an IC50 of 0.24 µM.

Turning to `Cc1ccncc1NC(=O)c1nc(-c2nn(Cc3ccccc3F)c3ncccc23)nc2c1C(C)(C)C(=O)N2` [Example 119, 2-[1-(2-fluorobenzyl)-1H-pyrazolo[3,4-b]pyridin-3-yl]-5,5-dimethyl-N-(4-methylpyridin-3-yl)-6-oxo-6,7-dihydro-5H-pyrrolo[2,3-d]pyrimidine-4-carboxamide], the MEC in assay [1] is 0.3 µM. The compound further displayed a concentration for half-maximal inhibition (IC50) in assay [2] of 0.01 µM.

In the case of `CN(CCO)C(=O)c1nc(-c2nn(Cc3ccccc3F)c3ncccc23)nc2c1C(C)(C)C(=O)N2` [Example 120, 2-[1-(2-fluorobenzyl)-1H-pyrazolo[3,4-b]pyridin-3-yl]-N-(2-hydroxyethyl)-N,5,5-trimethyl-6-oxo-6,7-dihydro-5H-pyrrolo[2,3-d]pyrimidine-4-carboxamide], in assay [1], the MEC was determined as 0.1 µM. Further, half-maximal inhibition in assay [2] (IC50) required 0.22 µM.

Turning to `CC(C)(N)CNC(=O)c1nc(-c2nn(Cc3ccccc3F)c3ncc(F)cc23)nc2c1C(C)(C)C(=O)N2` [Example 30], the MEC in assay [1] is 1 µM. The compound also gave an IC50 in assay [2] of 0.31 µM.

Take `CC1(C)C(=O)Nc2nc(-c3nn(Cc4ccccc4F)c4ncccc34)nc(C(=O)Nc3nccs3)c21` [Example 72, 2-[1-(2-fluorobenzyl)-1H-pyrazolo[3,4-b]pyridin-3-yl]-5,5-dimethyl-6-oxo-N-(1,3-thiazol-2-yl)-6,7-dihydro-5H-pyrrolo[2,3-d]pyrimidine-4-carboxamide]: in assay [1], the MEC was 1 µM. The compound further came in with an IC50 in assay [2] of 0.046 µM.

`Cc1nc2c(cc1F)c(-c1nc3c(c(C(=O)NCC(C)(N)CC(F)F)n1)C(C)(C)C(=O)N3)nn2Cc1cccc(F)c1F` (single isomer, unassigned) [Example 57]: the MEC in assay [1] stood at 1 µM. Besides, in assay [2], the IC50 was determined as 0.1 µM.

Regarding `CC(C)N(C)C(=O)c1nc(-c2nn(Cc3ccccc3F)c3ncccc23)nc2c1C(C)(C)C(=O)N2` [Example 112, 2-[1-(2-fluorobenzyl)-1H-pyrazolo[3,4-b]pyridin-3-yl]-N,5,5-trimethyl-6-oxo-N-(propan-2-yl)-6,7-dihydro-5H-pyrrolo[2,3-d]pyrimidine-4-carboxamide], in assay [1], the MEC is 0.03 µM. Besides, half-maximal inhibition in assay [2] (IC50) required 0.093 µM.

Take `CC1(C)C(=O)Nc2nc(-c3nn(Cc4ccccc4F)c4cc(Cl)ccc34)nc(C(N)=O)c21` [Example 3, 2-[6-Chloro-1-(2-fluorobenzyl)-1H-indazol-3-yl]-5,5-dimethyl-6-oxo-6,7-dihydro-5H-pyrrolo[2,3-d]pyrimidine-4-carboxamide]: the MEC in assay [1] amounted to 0.03 µM. Moreover, the IC50 in assay [2] was found to be 0.1 µM.

Regarding `CC1(C)C(=O)Nc2nc(-c3nn(Cc4ccccc4F)c4ncc(F)cc34)nc(C(=O)NCC(F)(F)F)c21` [Example 50], in assay [1], the MEC worked out at 0.1 µM. In addition, inhibition in assay [2] was half-maximal at 0.019 µM (IC50).

As for `CC1(C)C(=O)Nc2nc(-c3nn(Cc4ccccc4F)c4ncccc34)nc(C(=O)NC3(C4CC4)CC3)c21` [Example 82, N-[1,1′-bi(cyclopropyl)-1-yl]-2-[1-(2-fluorobenzyl)-1H-pyrazolo[3,4-b]pyridin-3-yl]-5,5-dimethyl-6-oxo-6,7-dihydro-5H-pyrrolo[2,3-d]pyrimidine-4-carboxamide], the MEC in assay [1] amounted to 0.1 µM. For the same compound, 0.0086 µM corresponded to half-maximal inhibition in assay [2] (IC50).

On to `Cc1nc2c(cc1F)c(-c1nc3c(c(C(N)=O)n1)C(C)(C(F)(F)F)C(=O)N3)nn2Cc1ccccc1F` (racemic) [Example 12, rac-2-[5-fluoro-1-(2-fluorobenzyl)-6-methyl-1H-pyrazolo[3,4-b]pyridin-3-yl]-5-methyl-6-oxo-5-(trifluoromethyl)-6,7-dihydro-5H-pyrrolo[2,3-d]pyrimidine-4-carboxamide], for which, in assay [1], the MEC was 0.065 µM. Moreover, half-maximal inhibition in assay [2] (IC50) required 0.13 µM.

In general, IC50 refers to the concentration that gives 50% inhibition. Low values mean higher potency, high ones lower potency.
